Series [1] can be described thus: Solubility of peptides in physiologic solutions. Type of series: physicochemical. To be noted: even when coupled to BSA. How it is done:
Peptides. Peptides were prepared by solid phase synthesis using an Applied Biosystems 430A automatic peptide synthesizer. They were analyzed by amino acid analysis, HPLC, sequencing, and/or FABS to determine purity. Amino acids are referred to by the standard single letter code. Peptides that are not soluble in phosphate buffered saline were dissolved in 1-2% NaDodSO4. Others were solubilized in acetic acid or trifluoroacetic acid, and sodium dodecyl sulfate (1-2%) is added. Once the peptides were in solution, they were conjugated to ovalbumin (5X crystallized) or BSA with 0.02% glutaraldehyde (32). The reaction was allowed to proceed for 30-60 min. blocked with ethanolamine, and the conjugate dialysed against PBS in tubing with a molecular weight cut off of ≤1000.

Series [2] relates to senescent cell IgG. In words: IgG binding and inhibition assay (competitive inhibition of senescent cell IgG binding to stored erythrocytes, 125I-Protein A). To be noted: for INHIBITION (%) of senescent cell IgG binding: Table 1, peptides 300 ug, senescent cell IgG 3 ug, 90 mins at room temperature, mean ± 1 SD of quadruplicate samples; for inhibition of senescent cell IgG binding (in words): competitive inhibition assay; for INHIBITION (%) of senescent cell IgG binding to erythrocytes, before or after DIDS modification: Table 4, 30 ug, stored red cells, ± SD, unmodified ANION 1 and COOH from a separate experiment. On the set-up: species or system human. How it is done: IgG binding and inhibition assay. IgG was isolated from senescent RBC from 50 liters of blood and purified with Protein A Sepharose as previously described (2, 4). IgG eluted from senescent cells (SCIgG), rather than serum IgG, was used because normal serum contains antibodies to spectrin, actin, 2.1, etc. (28). Competitive inhibition studies were performed using synthetic peptides to absorb the IgG isolated from senescent erythrocytes. Intact dimeric, senescent cell IgG containing the Fc portion binds to senescent cells in situ and initiates their removal (1-7, 30). Fab fragments were not used because we were simulating the physiological situation. IgG isolated from aged erythrocytes binds specifically to senescent cells. […] Moreover, the specific binding capacity of the autoantibody was eliminated by absorption with purified senescent cell antigen (SCA; 7). […] Storage mimics normal aging in situ immunologically and biochemically (1-7, 30). The number of red cell-bound IgG molecules was quantitated before and after absorption using equilibrium binding kinetics (7, 30, 31). Details of the methods are given elsewhere (27). Percent inhibition was calculated from the following formula: 100[1-(x-b/T-b)] where x=molecules of IgG autoantibody bound per cell; T=total number of IgG antibody molecules bound in the absence of inhibitor; b=background Protein A binding.
Competitive inhibition studies were performed using synthetic peptides to absorb the IgG isolated from senescent erythrocytes. IgG binding and inhibition were determined with a protein A binding assay. This biological assay measures the fate of erythrocytes in vitro and in vivo (1, 2, 4).
IgG binding and inhibition assay. Competitive inhibition studies were performed using synthetic peptides to absorb the IgG isolated from senescent erythrocytes. This is the same IgG that initiates phagocytosis in situ. The Fc portion IgG is required for binding and phagocytosis of cells by macrophages (3, 2, 4, 7, 29). Fab fragments were not used because we were simulating the physiological situation. Intact dimeric, senescent cell IgG containing the Fc portion binds to senescent cells in situ and initiates their removal (3, 32, 2, 4, 6, 17, 7). Only IgG isolated from aged erythrocytes binds specifically to senescent cells. […] Moreover, the specific binding capacity of the autoantibody was eliminated by absorption with purified senescent cell antigen (39). […] Storage mimics normal aging in situ immunologically and biochemically (32, 2, 4, 6, 29, 7). After incubation with absorbed IgG, cells were washed four times with 40-50 volumes of phosphate buffered saline containing 0.2% bovine serum albumin (BSA, fraction V, Sigma, St. Louis, Mo.) and 0.5% glucose. Washed cells were transferred to BSA-coated tubes (5×10^7 cells/50 ul) and incubated for 30 min. at 37° C. with ^125 I-Protein A (Amersham, Arlington Heights, Ill. 30-38 mCi/mg, 10-15 ng/tube). Cells were then washed four times and transferred to new tubes before counting in a gamma scintillation counter (Beckman, Gamma 5,500). The number of red cell-bound IgG molecules was quantitated before and after absorption using equilibrium binding kinetics (7).
Scatchard analysis was performed. Scathard, NY Acad. Sci. 51:660-672 (1949), incorporated herein by reference. Percent inhibition was calculated from the following formula: 100[1-(x-b/T-b)] where x=molecules of IgG autoantibody bound per cell; T=total number of IgG antibody molecules bound in the absence of inhibitor; b=background Protein A binding.

The test system of series [3] is erythrocyte anion transport. Put plainly: Peptide inhibition of sulfate influx (anion transport) in erythrocytes. Type of series: cell-based, human. To be noted: for inhibition of anion transport (in words): equimolar amounts of peptide and sulfate. The protocol:
Anion transport and DIDS inhibition measurements. Sulfate exchange is inhibited by […]. Stilbenedisulfonate derivatives such as DIDS inhibit anion transport by binding to at least two lysine residues in the membrane-spanning region of band 3 (45, 23, 35).
Peptide inhibition of sulfate "influx" experiments were performed essentially according to method of Jennings (46) using 300 mM sucrose, 10 mM Tris-HEPES, pH 7.0, as the "influx" buffer (47). Washed cells were incubated in 20-30 volumes of 110 mM K2 SO4 for 10 min at 37° C. to replace intracellular chloride. The cells were centrifuged and the supernatant removed and replaced with 110 mM K2 SO4 for 10 min. This was repeated 3 times. After the last centrifugation, cells were resuspended 300 mM sucrose, 10 mM Tris-HEPES, pH 7.0, and washed once. Cells were suspended to 2×10^8 cells/ml in 2 ml influx buffer at 37° C. Radioactive sulfate (0.01 mM) was added (582 mCi/mM) at suitable time intervals. Samples were taken and added to 18 volumes of ice cold 1.15% KCl (154 mM KCl) buffered to pH 7.4 with MOPS ("wash buffer"). The high chloride concentration, temperature, and pH all inhibit sulfate transport. Cells were washed twice to remove external sulfate at 0° C. with wash buffer. All samples were deproteinized with trichloracetic acid (final concentration 6.7%) and counted with Ready-Solv HP/6 (Beckman, Fullerton, Calif.) in a liquid scintillation counter. For peptide inhibition of sulfate transport, 0.01 mM of peptide(s) were added to the radioactive sulfate prior to addition to cells suspended in influx buffer.

For series [4], the system named is senescent cell IgG. Put plainly: Immunoblotting of synthetic peptides with IgG autoantibody from senescent erythrocytes. Type of series: binding, human. The note with it: autoradiograph of immunoblot, FIG. 4. The protocol:
Sodium dodecyl sulfate (NaDodSO4) polyacrylamide gel electrophoresis and immunostaining of peptides. Peptides were analyzed on 6-25% or 12-25% linear gels (6, 7, 27-29). Immunoautoradiography was performed by immunoblotting as described previously (6, 7, 28-30). Immunoblots were exposed to Kodak Ortho G (OG-1) film at -70° C. using our standard procedures (30, 45).
We used immunoblotting of the peptides followed by reaction with IgG eluted from senescent red cells (SCIgG) to localize the aging antigen site (FIG. 4A and B). We also used the IgG binding and inhibition assay at a singe concentration of peptide and performed Scatchard analysis (Table 2). […] Peptides that were negative by immunoblotting were also negative in the inhibition assay (FIG. 4 and Table 2).

[5] abbreviates: at concentrations up to / as high as 100 ug.
The mark [6] stands for this setting: equimolar peptide and sulfate (0.01 mM).

“Also recorded” adds a separate entry of the source. Where a SMILES comes first, the peptide text is derived from it.

`CC[C@H](C)[C@H](NC(=O)CNC(=O)[C@H](Cc1ccccc1)NC(=O)[C@H](CC(C)C)NC(=O)[C@@H](NC(=O)[C@H](C)NC(=O)[C@H](CC(C)C)NC(=O)[C@@H]1CCCN1C(=O)[C@@H](NC(=O)[C@H](CCCNC(=N)N)NC(=O)[C@H](CO)NC(=O)[C@H](CC(C)C)NC(=O)[C@@H](NC(=O)[C@@H]1CCCN1C(=O)[C@H](CCC(=O)O)NC(=O)[C@@H](N)CCSC)[C@@H](C)CC)[C@@H](C)CC)C(C)C)C(=O)N[C@@H](Cc1ccccc1)C(=O)N[C@@H](CC(C)C)C(=O)O` [776-793, MEPILSRIPLAVLFGIFL] (H-MEPILSRIPLAVLFGIFL-OH): the solubility result in series [1] is “not completely soluble”.

With `CC[C@H](C)[C@H](NC(=O)CNC(=O)[C@H](CO)NC(=O)[C@H](CC(C)C)NC(=O)[C@H](CO)NC(=O)[C@@H](NC(=O)[C@@H](NC(=O)CNC(=O)[C@H](CCSC)NC(=O)[C@H](Cc1ccc(O)cc1)NC(=O)[C@H](CC(C)C)NC(=O)[C@H](Cc1ccccc1)NC(=O)[C@@H](NC(=O)CNC(=O)[C@@H](N)Cc1ccccc1)[C@@H](C)CC)C(C)C)[C@@H](C)O)C(=O)N[C@@H](CCC(N)=O)C(=O)N[C@@H](CC(C)C)C(=O)O` [789-805, FGIFLYMGVTSLSGIQL] (H-FGIFLYMGVTSLSGIQL-OH), in series [1], the solubility result is “not completely soluble”.

As for `CC[C@H](C)[C@H](NC(=O)CNC(=O)[C@H](CO)NC(=O)[C@@H](N)CC(C)C)C(=O)N[C@@H](CCC(N)=O)C(=O)N[C@@H](CC(C)C)C(=O)N[C@@H](Cc1ccccc1)C(=O)N[C@@H](CC(=O)O)C(=O)N[C@@H](CCCNC(=N)N)C(=O)N[C@H](C(=O)N[C@@H](CC(C)C)C(=O)N[C@@H](CC(C)C)C(=O)N[C@@H](CC(C)C)C(=O)N[C@@H](Cc1ccccc1)C(=O)N[C@@H](CCCCN)C(=O)N1CCC[C@H]1C(=O)N1CCC[C@H]1C(=O)N[C@@H](CCCCN)C(=O)N[C@@H](Cc1ccc(O)cc1)C(=O)O)[C@@H](C)CC` [800-818, LSGIQLFDRILLLFKPPKY] (H-LSGIQLFDRILLLFKPPKY-OH), the solubility entry in series [1] is on record as “not completely soluble”.

For the compound “AGVANQLLDRFIFEDQ [CYTO, reference compound]”, in the series on senescent cell IgG [2], the “INHIBITION (%) of senescent cell IgG binding” value worked out at 0% and the “inhibition of senescent cell IgG binding (in words)” value is on record as “does not inhibit”.

With “FKPPKY (UniProt P02730 813-818, looked up, fragment) [N6]”, the “inhibition of senescent cell IgG binding” value was 48±1% with senescent cell IgG [2] (at 10 ug) and ~ 50% in the series with senescent cell IgG [2] (at 10 ug, listed as COOH hexamer (N6)). The “inhibition of anion transport (in words)” value in series [3] is “potent inhibitors of anion transport”.

Consider LFKPPKYHPDVPYVKR [COOH], for which, in the series with senescent cell IgG [2], the “INHIBITION (%) of senescent cell IgG binding” value came to 99 ± 1%; the “INHIBITION (%) of senescent cell IgG binding to erythrocytes, before or after DIDS modification” value is 20 ± 1%; the “inhibition of senescent cell IgG binding (in words)” value is “inhibitory over a range of 3 to 100 ug”. In the series on senescent cell IgG [2] (setting [5]), the “inhibition of senescent cell IgG binding” value is recorded as ≤ 50%. For the same compound, in the series on senescent cell IgG [4], the “binding of senescent cell IgG to peptide in immunoblots” value (“binding of senescent cell IgG” for short) is reported as “binding”. The “inhibition of anion transport” value in series [3] (at 5 min, FIG. 7, compared to control without peptide) worked out at 52±3%. The “inhibition of anion transport (in words)” value in series [3] was “potent inhibitors of anion transport”.

On to LRKFKNSSYFPGKLR [ANION 2], for which, in the series with senescent cell IgG [2], the “INHIBITION (%) of senescent cell IgG binding” value was determined as 30 ± 12% and the “inhibition of senescent cell IgG binding (in words)” value is given as “only slightly inhibitory; also recorded: only weakly inhibitory”. Moreover, the “binding of senescent cell IgG” value with senescent cell IgG [4] was “bound”. Further, the “inhibition of anion transport” value in series [3] (setting [6]) was 38±4%.

Regarding QKLSVPDGFKVSNSSARGW [GLYCOS], the “INHIBITION (%) of senescent cell IgG binding to erythrocytes” value in the series with senescent cell IgG [2] (Table 2, all peptides tested at 30 ug, ± standard deviation) came out at 9 ± 0%. The “inhibition of senescent cell IgG binding (in words)” value with senescent cell IgG [2] is listed as “only weakly inhibitory”. For the same compound, in the series on senescent cell IgG [4], the “binding of senescent cell IgG” value is reported as “Binding of antibody”.

As to SKLIKIFQDHPLQKTYN [ANION 1], in the series on senescent cell IgG [2], the “INHIBITION (%) of senescent cell IgG binding” value worked out at 88 ± 7%; the “INHIBITION (%) of senescent cell IgG binding to erythrocytes, before or after DIDS modification” value is 32 ± 2%; the “inhibition of senescent cell IgG binding (in words)” value is recorded as “inhibitory over a range of 3 to 100 ug”. Besides, the “inhibition of senescent cell IgG binding” value with senescent cell IgG [2] (setting [5]) was ≤ 50%. Also, the “binding of senescent cell IgG” value in the series on senescent cell IgG [4] is recorded as “trace binding”. In series [3], the “inhibition of anion transport (in words)” value was “does not inhibit anion transport”. In addition, the “inhibition of anion transport” value in series [3] (setting [6]) came out at 8±7%.

For YHPDVPYVKR [818-827], the “percent inhibition of senescent cell IgG binding” value in the series with senescent cell IgG [2] (FIG. 2 legend, 12.2 ug) is reported as 54±7. For the same compound, the “inhibition of senescent cell IgG binding” value with senescent cell IgG [2] (at 30 ug) is 54±3%.

The record behind these values is patent US5157020A, “Synthetic senescent cell antigen” (Research Corporation Tech., Inc., priority 1990, dated 1992).
